From patent publication US20240024273A1, “TOPICAL ADMINISTRATION OF 2-(DIETHYLAMINO)ETHYL 2-(4-ISOBUTYLPHENYL)PROPRIONATE FOR TREATMENT OF DISEASES” (TECHFIELDS PHARMA CO., LTD., priority 2020, published 2024)

Columns and labels:
[1] = system: osteoarthritis of the knee; assay: Second Phase 2 study: WOMAC (VAS) pain subscale score; format: in vivo, human; conditions: Week 12
Text: This is a Phase 2, multicenter, randomized, double blind (within dose), Ibuprofen-placebo controlled, parallel group, dose range finding study to evaluate the efficacy, safety, and PK of 2-(diethylamino)ethyl 2-(4-isobutylphenyl)propionate spray in adult subjects with clinically symptomatic OA of the knee. For subjects with bilateral knee pain, both knees will be treated, but the most symptomatic knee (ie, the most painful knee as measured by the Western Ontario and McMaster University Osteoarthritis Index [WOMAC® 3.1] pain subscale score at Screening) will be designated as the target knee for efficacy analyses. For subjects with unilateral knee pain, only the symptomatic (target) knee will be treated.
The VAS version of the WOMAC will be used for the Primary and Secondary Efficacy Endpoints. Efficacy endpoints will be assessed at Screening and Baseline (Day 1) and at the Week 2, Week 4, Week 8, and Week 12/EOS visits.
The Primary Efficacy Endpoint is the change from Baseline in the WOMAC (VAS) pain subscale score for the target knee at […] of treatment.
(§1) 4.9.2. Secondary Efficacy Endpoints: • 1. Change from Baseline in the WOMAC (VAS) pain subscale score for the target knee at 2, 8, and 12 weeks of treatment; • 2. Change from Baseline in the WOMAC (VAS) stiffness subscale scores for the target knee and WOMAC (VAS) functional ability subscale scores at 2, 4, 8, and 12 weeks of treatment; • 3. Change from Baseline in the overall WOMAC (VAS) score at 2, 4, 8, and 12 weeks of treatment; • 4. Subject's global assessment of disease status of the target knee at 2, 4, 8, and 12 weeks of treatment; • 5. Subject's global assessment of response to therapy of the target knee at 2, 4, 8, and 12 weeks of treatment; • 6. Amount of rescue medication (acetaminophen) consumed per day for target knee pain.
The Primary Efficacy Endpoint is change from Baseline in the WOMAC (VAS) pain subscale score for the target knee at 4 weeks of treatment, and will be analyzed using an analysis of covariance (ANCOVA). Treatment will be included as a fixed class effect and WOMAC Baseline pain subscale score as covariates. The primary comparisons of interest will be the difference between active Group A (4.375 mg 2-(diethylamino)ethyl 2-(4-isobutylphenyl)propionate/knee) and combined placebo, active Group B (8.75 mg 2-(diethylamino)ethyl 2-(4-isobutylphenyl)propionate/knee) and combined placebo, and active Group C (17.5 mg 2-(diethylamino)ethyl 2-(4-isobutylphenyl)propionate/knee) and combined placebo.

[2] = system: osteoarthritis of the knee; assay: Second Phase 2 study: Subject's Global Assessment of Disease Status (SGADS); format: in vivo, human
Text: as §1

[3] = 17.5 mg/knee BID (n = 19), first 130 subjects
[4] = all subjects, 4.375 mg/knee BID, n = 49
[5] = all subjects, 8.75 mg/knee BID, n = 54
[6] = all subjects, 17.5 mg/knee BID, n = 52
[7] = 17.5 mg/knee BID, Week 12, first 130 subjects
[8] = Week 12, 4.375 mg/knee BID (n = 23), first 130 subjects
[9] = Week 12, 8.75 mg/knee BID (n = 24), first 130 subjects
[10] = Week 12, 17.5 mg/knee BID (n = 19), first 130 subjects
[11] = all subjects, 4.375 mg/knee BID, n = 49, Week 12
[12] = all subjects, 8.75 mg/knee BID, n = 54, Week 12
[13] = all subjects, 17.5 mg/knee BID, n = 52, Week 12

## CCN(CC)CCOC(=O)C(C)c1ccc(CC(C)C)cc1 (stereo not drawn) [2-(diethylamino)ethyl 2-(4-isobutylphenyl)propionate]
[1]; [3]
  WOMAC Pain Subscale Scores, Different from oral ibuprofen (LS Mean): −14.5 mm
  WOMAC Pain Subscale Scores, Different from placebo (LS Mean): −15.0 mm
  WOMAC Pain Subscale Scores, Week 12 (LS Mean): 27.9 mm
[1]; [4]
  WOMAC Pain Subscale Scores, % of improvement from Oral Ibuprofen: −0.7%
  WOMAC Pain Subscale Scores, % of improvement from Placebo: −5.2%
  WOMAC Pain Subscale Scores, % of improvement from baseline: −41.9%
  WOMAC Pain Subscale Scores, Changes from Baseline (LS Mean): −25.6 mm
  WOMAC Pain Subscale Scores, Week 12 (LS Mean): 35.5 mm
[1]; [5]
  WOMAC Pain Subscale Scores, % of improvement from Oral Ibuprofen: −4.9%
  WOMAC Pain Subscale Scores, % of improvement from Placebo: −9.4%
  WOMAC Pain Subscale Scores, % of improvement from baseline: −46.1%
  WOMAC Pain Subscale Scores, Changes from Baseline (LS Mean): −28.6 mm
  WOMAC Pain Subscale Scores, Different from oral ibuprofen (LS Mean): −3.2 mm
  WOMAC Pain Subscale Scores, Different from placebo (LS Mean): −6.0 mm
  WOMAC Pain Subscale Scores, Week 12 (LS Mean): 33.4 mm
[1]; [6]
  WOMAC Pain Subscale Scores, % of improvement from Oral Ibuprofen: −9.8%
  WOMAC Pain Subscale Scores, % of improvement from Placebo: −14.3%
  WOMAC Pain Subscale Scores, % of improvement from baseline: −51.0%
  WOMAC Pain Subscale Scores, Changes from Baseline (LS Mean): −31.7 mm
  WOMAC Pain Subscale Scores, Different from oral ibuprofen (LS Mean): −6.3 mm
  WOMAC Pain Subscale Scores, Different from placebo (LS Mean): −9.1 mm
  WOMAC Pain Subscale Scores, Week 12 (LS Mean): 30.5 mm
[2]; [7]
  SGADS, difference from oral ibuprofen: −14.2 mm
  SGADS, difference from placebo: −18.6 mm
[2]; 4.375 mg/knee BID (n = 23), first 130 subjects
  Subject’s Global Assessment of Disease Status Scores, Baseline (LS Mean): 64.8 mm
[2]; 8.75 mg/knee BID (n = 24), first 130 subjects
  Subject’s Global Assessment of Disease Status Scores, Baseline (LS Mean): 67.2 mm
[2]; [3]
  Subject’s Global Assessment of Disease Status Scores, Baseline (LS Mean): 69.3 mm
[2]; [8]
  Subject’s Global Assessment of Disease Status Scores, % of improvement from Oral Ibuprofen: −12.2%
  Subject’s Global Assessment of Disease Status Scores, % of improvement from baseline: −50.6%
  Subject’s Global Assessment of Disease Status Scores, % of improvement from placebo: −14.2%
  Subject’s Global Assessment of Disease Status Scores, Changes from Baseline (LS Mean): −32.8 mm
  Subject’s Global Assessment of Disease Status Scores, Different from oral ibuprofen (LS Mean): −3.9 mm
  Subject’s Global Assessment of Disease Status Scores, Different from placebo (LS Mean): −8.3 mm
  Subject’s Global Assessment of Disease Status Scores, Week 12 (LS Mean): 32.0 mm
[2]; [9]
  Subject’s Global Assessment of Disease Status Scores, % of improvement from Oral Ibuprofen: −11.8%
  Subject’s Global Assessment of Disease Status Scores, % of improvement from baseline: −50.7%
  Subject’s Global Assessment of Disease Status Scores, % of improvement from placebo: −14.3%
  Subject’s Global Assessment of Disease Status Scores, Changes from Baseline (LS Mean): −34.1 mm
  Subject’s Global Assessment of Disease Status Scores, Different from oral ibuprofen (LS Mean): −5.2 mm
  Subject’s Global Assessment of Disease Status Scores, Different from placebo (LS Mean): −9.6 mm
  Subject’s Global Assessment of Disease Status Scores, Week 12 (LS Mean): 33.1 mm
[2]; [10]
  Subject’s Global Assessment of Disease Status Scores, % of improvement from Oral Ibuprofen: −23.8%
  Subject’s Global Assessment of Disease Status Scores, % of improvement from baseline: −62.2%
  Subject’s Global Assessment of Disease Status Scores, % of improvement from placebo: −25.8%
  Subject’s Global Assessment of Disease Status Scores, Changes from Baseline (LS Mean): −43.1 mm
  Subject’s Global Assessment of Disease Status Scores, Different from oral ibuprofen (LS Mean): −14.2 mm
  Subject’s Global Assessment of Disease Status Scores, Different from placebo (LS Mean): −18.6 mm
  Subject’s Global Assessment of Disease Status Scores, Week 12 (LS Mean): 26.2 mm
[2]; [11]
  Subject's Global Assessment of Disease Status Scores, % of improvement from Oral Ibuprofen: −5.3%
  Subject's Global Assessment of Disease Status Scores, % of improvement from Placebo: −6.0%
  Subject's Global Assessment of Disease Status Scores, % of improvement from baseline: −51.9%
  Subject's Global Assessment of Disease Status Scores, Changes from Baseline (LS Mean): −34.7 mm
  Subject's Global Assessment of Disease Status Scores, Week 12 (LS Mean): 32.1 mm
[2]; [12]
  Subject's Global Assessment of Disease Status Scores, % of improvement from Oral Ibuprofen: −6.4%
  Subject's Global Assessment of Disease Status Scores, % of improvement from Placebo: −7.1%
  Subject's Global Assessment of Disease Status Scores, % of improvement from baseline: −53.0%
  Subject's Global Assessment of Disease Status Scores, Changes from Baseline (LS Mean): −36.6 mm
  Subject's Global Assessment of Disease Status Scores, Different from oral ibuprofen (LS Mean): −3.4 mm
  Subject's Global Assessment of Disease Status Scores, Different from placebo (LS Mean): −6.2 mm
  Subject's Global Assessment of Disease Status Scores, Week 12 (LS Mean): 32.4 mm
[2]; [13]
  Subject's Global Assessment of Disease Status Scores, % of improvement from Oral Ibuprofen: −10.6%
  Subject's Global Assessment of Disease Status Scores, % of improvement from Placebo: −11.3%
  Subject's Global Assessment of Disease Status Scores, % of improvement from baseline: −57.2%
  Subject's Global Assessment of Disease Status Scores, Changes from Baseline (LS Mean): −38.3 mm
  Subject's Global Assessment of Disease Status Scores, Different from placebo (LS Mean): −7.9 mm
  Subject's Global Assessment of Disease Status Scores, Week 12 (LS Mean): 28.7 mm
